Test results as given in PubChem BioAssay AID1259407 (Chemical Carcinogenesis Research Information System (CCRIS), 2018).
Calls of active or inactive are those of the source. How the calls were made is not given here.

Tested on: CCRIS mutagenicity, Ames/micronucleus/aberration tests
Test: CCRIS mutagenicity studies
[1] = Test System: AMES SALMONELLA TYPHIMURIUM, Strain/Indicator: TA98, Metabolic Activation: NONE, Method: STANDARD PLATE
[2] = Test System: AMES SALMONELLA TYPHIMURIUM, Strain/Indicator: TA100, Metabolic Activation: NONE, Method: PREINCUBATION
[3] = Test System: AMES SALMONELLA TYPHIMURIUM, Strain/Indicator: TA100, Metabolic Activation: NONE, Method: STANDARD PLATE

Cc1cc2ncccc2c2nc(N)n(C)c12
mutagenic call (End Point: IN VITRO MICRONUCLEUS, Test System: CHL/IU CELLS, Metabolic Activation: RAT, LIVER, S-9, PHENOBARBITAL AND 5,6-BENZOFLAVONE): active; positive | mutagenic call (Test System: AMES SALMONELLA TYPHIMURIUM, Strain/Indicator: TA98(1,8-DNP6), Metabolic Activation: RAT, LIVER, S-9, Method: STANDARD PLATE): inactive; negative | mutagenic call (Test System: AMES SALMONELLA TYPHIMURIUM, Strain/Indicator: TA98, Metabolic Activation: HAMSTER, LIVER, HEPATOCYTES, Method: STANDARD PLATE): active; positive | mutagenic call (Test System: AMES SALMONELLA TYPHIMURIUM, Strain/Indicator: TA98, Metabolic Activation: HUMAN, BLOOD, CYTOSOL, Method: PREINCUBATION): active; positive | mutagenic call (Test System: AMES SALMONELLA TYPHIMURIUM, Strain/Indicator: TA98, Metabolic Activation: NONE, Method: PREINCUBATION): inactive; negative | mutagenic call [1]: inactive; negative | mutagenic call (Test System: AMES SALMONELLA TYPHIMURIUM, Strain/Indicator: TA98, Metabolic Activation: RAT, LIVER, HEPATOCYTES, AROCLOR 1254, Method: PREINCUBATION): active; positive | mutagenic call (Test System: AMES SALMONELLA TYPHIMURIUM, Strain/Indicator: TA98, Metabolic Activation: RAT, LIVER, HEPATOCYTES, Method: PREINCUBATION): active; positive | mutagenic call (Test System: AMES SALMONELLA TYPHIMURIUM, Strain/Indicator: TA98, Metabolic Activation: RAT, LIVER, HEPATOCYTES, Method: STANDARD PLATE): active; positive | mutagenic call (Test System: AMES SALMONELLA TYPHIMURIUM, Strain/Indicator: TA98, Metabolic Activation: RAT, LIVER, S-9, AROCLOR 1254, Method: PREINCUBATION): active; positive | mutagenic call (Test System: AMES SALMONELLA TYPHIMURIUM, Strain/Indicator: TA98, Metabolic Activation: RAT, LIVER, S-9, N-BENZYLIMIDAZOLE, Method: PREINCUBATION): active; positive | mutagenic call (Test System: AMES SALMONELLA TYPHIMURIUM, Strain/Indicator: TA98, Metabolic Activation: RAT, LIVER, S-9, Method: STANDARD PLATE): active; positive | mutagenic call (Test System: AMES SALMONELLA TYPHIMURIUM, Strain/Indicator: TA98, Metabolic Activation: S-9, Method: STANDARD PLATE): active; positive | mutagenic call (Test System: AMES SALMONELLA TYPHIMURIUM, Strain/Indicator: TA98, Method: STANDARD PLATE): active; positive | mutagenic call [2]: inactive; negative | mutagenic call [3]: inactive; negative | mutagenic call (Test System: AMES SALMONELLA TYPHIMURIUM, Strain/Indicator: TA100, Metabolic Activation: RAT, LIVER, S-9, AROCLOR 1254, Method: PREINCUBATION): active; positive | mutagenic call (Test System: AMES SALMONELLA TYPHIMURIUM, Strain/Indicator: TA100, Metabolic Activation: RAT, LIVER, S=9, AROCLOR 1254, Method: PREINCUBATION): active; positive | mutagenic call (Test System: AMES SALMONELLA TYPHIMURIUM, Strain/Indicator: TA100, Metabolic Activation: S-9, Method: STANDARD PLATE): active; positive | mutagenic call (Test System: CHINESE HAMSTER V-79, Strain/Indicator: V-79/6-THIOGUANINE, Metabolic Activation: HAMSTER, PANCREAS DUCT, EPITHELIAL CELLS): active; positive | mutagenic call (Test System: CHINESE HAMSTER V-79, Strain/Indicator: V-79/6-THIOGUANINE, Metabolic Activation: HUMAN, PANCREAS DUCT, EPITHELIAL CELLS): active; positive | mutagenic call (Test System: CHINESE HAMSTER V-79, Strain/Indicator: V-79/6-THIOGUANINE, Metabolic Activation: RAT, LIVER, HEPATOCYTES, AROCLOR 1254): active; positive | mutagenic call (Test System: UDS HAMSTER HEPATOCYTES, Strain/Indicator: THY INCORP, Metabolic Activation: NONE, Method: LIQUID SCINTILLATION COUNTING): active; positive | mutagenic call (Test System: UDS HUMAN HEPATOCYTES, Strain/Indicator: THY INCORP, Metabolic Activation: NONE, Method: AUTORADIOGRAPHY): active; positive | mutagenic call (Test System: UDS MOUSE HEPATOCYTES, Strain/Indicator: THY INCORP, Metabolic Activation: NONE, Method: AUTORADIOGRAPHY): active; positive | mutagenic call (Test System: UDS RAT HEPATOCYTES, Strain/Indicator: THY INCORP, Metabolic Activation: NONE, Method: AUTORADIOGRAPHY): active; positive | mutagenic call (Test System: UDS RAT HEPATOCYTES, Strain/Indicator: THY INCORP, Metabolic Activation: NONE, Method: LIQUID SCINTILLATION COUNTING): active; positive

Cc1cc(O)c2c(c1O)C(=O)C13C(=C2O)C(=O)C2C(O)C1C1C(O)C3C(=O)C3=C(O)c4c(O)cc(C)c(O)c4C(=O)C321 (stereo not drawn)
mutagenic call [2]: inactive; negative | mutagenic call (Test System: AMES SALMONELLA TYPHIMURIUM, Strain/Indicator: TA100, Metabolic Activation: RAT, LIVER, S-9, PHENOBARBITAL, Method: PREINCUBATION): inactive; negative

COC1=CC(=O)c2c(nc(C)c3c4c([nH]c23)CCCC4)C1=O
mutagenic call (Test System: AMES SALMONELLA TYPHIMURIUM, Strain/Indicator: TA97A, Metabolic Activation: NONE, Method: STANDARD PLATE): inactive; negative | mutagenic call (Test System: AMES SALMONELLA TYPHIMURIUM, Strain/Indicator: TA97A, Metabolic Activation: RAT LIVER S-9, AROCLOR 1254, Method: STANDARD PLATE): inactive; negative | mutagenic call [1]: active; positive | mutagenic call (Test System: AMES SALMONELLA TYPHIMURIUM, Strain/Indicator: TA98, Metabolic Activation: RAT LIVER S-9, AROCLOR 1254, Method: STANDARD PLATE): active; positive | mutagenic call [3]: inactive; negative | mutagenic call (Test System: AMES SALMONELLA TYPHIMURIUM, Strain/Indicator: TA100, Metabolic Activation: RAT LIVER S-9, AROCLOR 1254, Method: STANDARD PLATE): inactive; negative | mutagenic call (Test System: AMES SALMONELLA TYPHIMURIUM, Strain/Indicator: TA102, Metabolic Activation: NONE, Method: STANDARD PLATE): inactive; negative | mutagenic call (Test System: AMES SALMONELLA TYPHIMURIUM, Strain/Indicator: TA102, Metabolic Activation: RAT LIVER S-9, AROCLOR 1254, Method: STANDARD PLATE): inactive; negative

CCCCCCC(CCCC)COc1ccc(-c2ccc(-c3ccc(-c4ccc(OCC(CCCC)CCCCCC)cc4)cc3)cc2)cc1 (stereo not drawn)
mutagenic call (Test System: AMES SALMONELLA TYPHIMURIUM, Strain/Indicator: TA1538, Metabolic Activation: NONE, Method: STANDARD PLATE): inactive; negative | mutagenic call (Test System: AMES SALMONELLA TYPHIMURIUM, Strain/Indicator: TA1538, Metabolic Activation: RAT, LIVER, S-9, AROCLOR 1254, Method: STANDARD PLATE): inactive; negative

O=C1C(c2[nH]c3ccccc3c2O)=Nc2ccccc21
mutagenic call [1]: inactive; negative | mutagenic call (Test System: AMES SALMONELLA TYPHIMURIUM, Strain/Indicator: TA98, Metabolic Activation: RAT, LIVER, S-9, AROCLOR 1254, Method: STANDARD PLATE): active; positive | mutagenic call [3]: inactive; negative | mutagenic call (Test System: AMES SALMONELLA TYPHIMURIUM, Strain/Indicator: TA100, Metabolic Activation: RAT, LIVER, S-9, AROCLOR 1254, Method: STANDARD PLATE): inactive; negative
